Assays:
[1] = tested on: MUC1-fs; experiment: MUC1-fs immunofluorescence high-content imaging assay in P cells; format: cell-based, human; settings: read-out: EC50 for removal of MUC1-fs (IF); P cells treated 48 hours
Procedure: Cells grown on CellCarrier-96 or -384 well Ultra microplates (PerkinElmer) were fixed 10 min in PBS containing 4% PFA (Electron Microscopy Sciences), permeabilized 15 min in 0.5% Triton X100 (X100-100ML, Sigma-Aldrich), blocked for 1 hr in blocking reagent (100 mM Tris HCL pH8; 150 mM NaCL; 5 g/L Blocking Reagent [11096176001, Roche]) and treated for 1 hr with primary antibodies diluted in blocking reagent (1:500, monoclonal Fab-A-VSH anti-fsMUC1, AbD22655.2, Bio-Rad; 1:2000, monoclonal Mouse anti-MUC1 (CD227), 60137, Stemcell Technologies; 1:200, polyclonal, Mouse anti-GM130, ab169276, Abcam; 1:100, polyclonal, Rabbit anti-TMED9, 216201-AP, Proteintech; 1:800, polyclonal, Rabbit anti-SEC31A, 17913-1-AP, Proteintech; 1:400, monoclonal, Rabbit anti-EEA1 (C45B10), 3288S, Cell signaling technology; 1:100, polyclonal, Rabbit anti-ERGIC-53, E1031, Sigma-Aldrich; 1:400, monoclonal, Mouse anti-LAMP1 (D401S), 15665, Cell signaling technology; 1:1000, polyclonal, Rabbit anti-Calnexin, ab22595, Abcam; 1:2000, monoclonal, Rabbit anti-GM130 (D6B1) XP, 12480, Cell signaling technology; 1:200, monoclonal, Rabbit anti TNG46, ab50595, Abcam; 1:100, monoclonal, Rabbit anti-Rab7 (D95F2) XP, 9367, Cell signaling technology; 1:100, monoclonal, Rabbit anti-Rab11 (D4F5) XP, 5589, Cell signaling technology). Fixed, stained cells were washed three times in PBS and incubated for 1 hr with secondary antibodies in blocking solution (1:500, Alexa Fluor 488® Goat anti-Mouse IgG, A-11029, Thermo Fisher Scientific®; 1:500, Alexa Fluor 647® F(ab′)2-Goat anti-Rabbit IgG, A21246, Thermo Fisher Scientific®; 1:2000, Hoechst 33342, H3570, Thermo Fisher Scientific®), then washed three times in PBS and imaged.
Cell nuclei were first identified using Hoechst staining, and cell number was calculated. Cytoplasmic regions were then detected around each nucleus based on combined channels. The cells from the edge of the field were eliminated from the analysis. For the quantification of protein abundance, the total signal intensity value for each antibody was calculated separately in the cell cytoplasm and the average signal per cell was calculated for each well.
P cells were seeded 24 hr prior to compound treatment at a density of 12,000 cells/well in 384 well Cell Carrier Ultra plates (6057308, Perkin Elmer), pre-coated with 0.25 mg/mL Synthemax II SC Substrate (3535, Corning). Compounds of the repurposing library set (Corsello et al., 2017) were used at 5 doses (35, 3.5, 0.35, 0.035 and 0.0035 μM) for the primary screen and 10 doses (16, 5.6, 1.8, 0.6, 0.21, 0.07, 0.02, 0.008, 0.002 and 0.0008 μM) for the following screens. The compounds, in two replicates, were transferred from compound source plates to the cell plates using the HighRes Pin Tool. […] After 48 hr incubation, cells were fixed for 20 min in 4% PFA (Electron Microscopy Sciences) in PBS, washed twice, then permeabilized (10 min) with 0.5% Triton-X100 (X100-100ML, Sigma-Aldrich) in PBS and washed once more. Cells were blocked for 10 min at RT with Blocking solution (100 mM Tris HCL pH8; 150 mM NaCL; 5 g/L Blocking Reagent [11096176001, Roche]), then incubated 90 min at RT with one of the following primary antibodies in Roche Blocking solution: 1:500, monoclonal Fab-A-VSH anti-MUC1-fs, AbD22655.2, Bio-Rad; 1:2000, monoclonal mouse anti-MUC1 (214D4), 05-652-KC, Millipore; 1:1000, monoclonal, Rabbit anti-GM130 (D6B1) XP, 12480, Cell signaling technology. […]

[2] = tested on: ER stress and the UPR; experiment: RNA-Seq pathway analysis of fs/+ mouse kidney lysates; format: in vivo; settings: fs/+ mice, 50 mg/kg/day, 7 days
Procedure: RNA was extracted from a sagittal section of a half-kidney. Kidney tissue was homogenized using tissue homogenizer (Tissue-Tearor™, BioSpec Products) in 1 mL of TRIzol™ Reagent (15596026, Thermo Fisher Scientific®). Following 5 min incubation, 0.2 mL chloroform (C2432-500ML, Sigma-Aldrich) was added, and samples were vigorously mixed for 30 sec, then centrifuged at 12,000×g at 4° C. for 15 min. The upper aqueous phase containing RNA was then vigorously mixed with 0.5 mL of isopropanol for 30 sec. After 10 min incubation at RT, the samples were centrifuged at 12,000×g at 4° C. for 10 min. The pellet was resuspended in 1 mL of 75% ethanol and centrifuged at 12,000×g 4° C. for 5 min. The RNA pellet was then air dried for 15 min, dissolved in 50 μL of Nuclease-Free Water (AM9937, Thermo Fisher Scientific®), treated with DNase I, Amplification Grade (18068015, Thermo Fisher Scientific®) following the manufacturer's protocol and assessed for yield and purity by NanoDrop™ 2000 (Thermo Fisher Scientific®).
Data processing and statistical analyses for all RNA-seq experiments were performed in RStudio—Version 1.0.153 as follows. First, bam files obtained from the Broad Institute sequencing platform were reverted to FASTQ files followed by alignment of paired end reads to the mm10 mouse or hg19 human reference genome using STAR. […]

[3] = tested on: MUC1-fs; experiment: MUC1-fs IF in MKD patient iPSC-derived kidney organoids; format: cell-based, human; settings: 10 μM, 72 hours, organoids P1-P3
Procedure: Kidney organoids were immersion-fixed for 15 min in 4% PFA at 4° C. and subsequently frozen in OCT using dry ice and 100% ethanol. Six […] cryostat sections (CM1950, Leica) were thaw-mounted on microscope slides (Fisherbrand™ Superfrost™ Plus, Fisher Scientific) and kept in the cryostat (at −26° C.) for the duration of the sectioning process. Prior to immunostaining, organoid sections were rinsed in PBS for 5 min, incubated for 20 min at room temperature (RT) in PBS blocking solution containing 5% normal donkey serum (530-100ML, EMD Millipore) and 1.5% Tween® 20 (P1379, Sigma-Aldrich), then incubated overnight at 4° C. with primary antibodies diluted in the same blocking solution (1:500, monoclonal Armenian hamster anti-MUC1, Ab80952, Abcam; 1:500, monoclonal Fab-A-VSH anti-fsMUC1, AbD22655.4, Bio-Rad; 1:300 monoclonal Rat anti-E Cadherin [DECMA-1], ab11512, Abcam; 1:500 polyclonal Rabbit anti-Laminin, L9393-100UL, Sigma-Aldrich; 1:500 Na/K-ATPase, ab76020, Abcam; 1:300 Fluorescein labeled Lotus Tetragonolobus Lectin (LTL), FL-1321, Vector laboratories; 1:100, polyclonal, Rabbit anti-TMED9, 21620-1-AP, Proteintech). […]
For a sequence analysis illustration, refer to FIG. 12B. […] MUC1-wt signal intensities were calculated within each WT reference region and averaged for entire section. […]

[4] = Munk et al., 1996; cited from earlier work

Question: For `CC(C)[C@@H]1[C@H]2CC[C@H](C2)[C@H]1N` (racemic) [BRD-4780, 2-endo-amino-3-exo-isopropylbicyclo[2.2.1]heptane], which EC50 [1] is on record?
Answer: The EC50 was 143 nM.

Question: What about the “pathways changed in kidney bulk RNA-Seq” value [2] of the same compound?
Answer: Its value is “downregulated pathways associated with ER stress and the UPR”.

Question: And the “MUC1-fs protein in patient kidney organoids” value [3]?
Answer: Its value is “cleared the mutant protein from intracellular compartments in all patient organoids”.

Question: And the “anti-hypertensive efficacy in animal studies” value [4]?
Answer: Its value is “lack of efficacy as an anti-hypertensive”.

Reference: patent US12023308B2, “Agents for reversing toxic proteinopathies” (THE BROAD INSTITUTE, INC., priority 2019, dated 2024)
